Assay results: paper PMC8133782, “Identification of a series of hair-cell MET channel blockers that protect against aminoglycoside-induced ototoxicity” (JCI Insight, 2021)

Key:
Format in all cases: cell-based
[1] = molecular target: T1, mechano-electrical transducer (MET) channel (pore subunit TMC1) (Mus musculus, UniProt Q8R4P5); assay: whole-cell patch clamp of MET currents in OHCs, fractional block at […]
T1 construct: native MET channel in early postnatal CD-1 mouse outer hair cells
T1 sequence (Q8R4P5 1-757): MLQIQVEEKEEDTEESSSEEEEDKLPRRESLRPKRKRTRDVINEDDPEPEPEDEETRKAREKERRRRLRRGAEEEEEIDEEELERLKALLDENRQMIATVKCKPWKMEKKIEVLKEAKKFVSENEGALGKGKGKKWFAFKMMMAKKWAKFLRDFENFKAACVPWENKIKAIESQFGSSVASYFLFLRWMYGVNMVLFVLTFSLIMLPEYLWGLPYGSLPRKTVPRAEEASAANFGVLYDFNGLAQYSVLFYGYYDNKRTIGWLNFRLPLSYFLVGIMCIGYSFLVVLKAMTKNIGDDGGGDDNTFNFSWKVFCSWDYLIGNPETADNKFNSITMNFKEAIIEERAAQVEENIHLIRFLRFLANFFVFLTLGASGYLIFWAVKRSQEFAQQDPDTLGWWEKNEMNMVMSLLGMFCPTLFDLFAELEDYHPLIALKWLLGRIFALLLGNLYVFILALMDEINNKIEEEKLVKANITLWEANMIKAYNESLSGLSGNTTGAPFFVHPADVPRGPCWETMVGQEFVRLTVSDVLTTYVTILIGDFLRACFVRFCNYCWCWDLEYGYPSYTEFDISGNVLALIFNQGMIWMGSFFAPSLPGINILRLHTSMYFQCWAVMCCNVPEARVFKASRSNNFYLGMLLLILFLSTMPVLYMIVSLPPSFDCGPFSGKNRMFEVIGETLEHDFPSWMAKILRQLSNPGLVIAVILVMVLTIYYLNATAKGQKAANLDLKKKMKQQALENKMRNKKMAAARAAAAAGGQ

[2] = molecular target: T1, mechano-electrical transducer (MET) channel (pore subunit TMC1); assay: whole-cell patch clamp of MET currents in OHCs, fractional block at […], partially reversible
[3] = molecular target: T1, mechano-electrical transducer (MET) channel (pore subunit TMC1); assay: whole-cell patch clamp of MET currents in OHCs, fractional block at […] (approximately […])

SMILES: O=C(CN1CCC(c2nc3ccccc3[nH]2)CC1)Nc1cccc([N+](=O)[O-])c1 [UoS-3607]
- inhibition at 50 µM [1]: ~70%

SMILES: O=C(Nc1ccc(OC(F)(F)F)cc1)C1CCN(Cc2nc3ccccc3[nH]2)CC1 [UoS-8052]
- inhibition at 50 µM [2]: ~70%

SMILES: C(=C\c1ccccc1)/CN1CCC(c2nc3ccccc3[nH]2)CC1 [UoS-3606]
- inhibition at 50 µM [3]: ~80%
